# Measurements from patent US3956234A, “Inhibiting ozone deterioration of rubbers” (Sumitomo Chemical Company, Limited, priority 1973, dated 1976).
# What was measured:
# [1] = Dynamic ozone deterioration test, Example 3 chloroprene rubber compound; settings: Table 7, dynamic, repeated elongation 0 up to 20 %, 1.5 parts added, ozone 90 ± 5 pphm, 50 ± 10°C
# Description: (§1) The static and dynamic ozone deterioration tests were made on the test pieces on the Ozone Weather-O-Meter produced by Toyo Rika Co. Ltd. In the static test, the Dumbbel No. 2 test pieces were kept at a 20 % elongation in the stream of ozone during the test, and during the latter test, the test pieces were given repeated elongation of from 0 up to 20 % once a second in the stream of ozone.
# (§2) be 50 ± 10°C., and the time required for the generation of visually observable cracks on the surface of the vulcanized rubber was taken as a crack-generating time which was used as the measure of ozone-resistance. […]
# (§3) A blank test was also carried out at the same time for comparison, using the rubber compound alone above mentioned.
# [2] = Dynamic ozone deterioration test, Example 2 SBR compound; settings: Table 5, dynamic, repeated elongation 0 up to 20 %, 2 parts added, ozone 35 ± 5 pphm, 50 ± 10°C
# Description: as §1
# (§4) The tests were carried out under the condition that the ozone concentration be 35 ± 5 pphm and the test temperature be 50 ± 10°C., and the time required for the generation of visually observable cracks on the surface of the vulcanized rubber was taken as a crack-generating time which was used as the measure of ozone-resistance.
# (§5) Two parts of each of the present compounds in Table 1 (sample numbers A to H) and, as a counterpart, Antiozonant AFD represented by sample number I were individually mixed thoroughly with the following rubber compound,
# (§6) and each resulting mixture was well milled on a 2-roll mill of 10 inches in diameter and then vulcanized thereon at 150°C. for 30 minutes. A blank test was also carried out at the same time for comparison, using the rubber compound alone above mentioned.
# [3] = Static ozone deterioration test, Example 2 SBR compound; settings: Table 4, static, 20 % elongation, 2 parts added, ozone 35 ± 5 pphm, 50 ± 10°C
# Description: as §1, §4, §5, §6
# [4] = Dynamic ozone deterioration test, Example 1 natural rubber compound (pale crape No. 1); settings: Table 3, dynamic, repeated elongation 0 up to 20 % once a second, 2 parts added, ozone 35 ± 5 pphm, 50 ± 10°C
# Description: (§7) Two parts of each of the present compounds in Table 1 (sample numbers A to H) and, as a counterpart, Antiozonant AFD (a registered trademark of Bayer Co. Ltd.) represented by sample number I were individually mixed thoroughly with the following rubber compound,
# (§8) and each resulting mixture was well milled on a 2-roll mill of 10 inches in diameter and then vulcanized thereon at 140°C. for 20 minutes. A blank test was also carried out at the same time for comparison, using the rubber compound alone above mentioned.
# as §1, §4
# [5] = Static ozone deterioration test, Example 3 chloroprene rubber compound; settings: Table 6, static, 20 % elongation, 1.5 parts added, ozone 90 ± 5 pphm, 50 ± 10°C
# Description: as §1, §2, §3
# [6] = Static ozone deterioration test, Example 1 natural rubber compound (pale crape No. 1); settings: Table 2, static, 20 % elongation, 2 parts added, ozone 35 ± 5 pphm, 50 ± 10°C
# Description: as §7, §8, §1, §4
Compound,Crack-generating time [1] [h],Crack-generating time [2] [h],Crack-generating time [3] [h],Crack-generating time [4] [h],Crack-generating time [5] [h],Crack-generating time [6] [h]
CC(C)SCCC#N [B],185,14,11,16,175,15
CC(C#N)CSCC(C)C#N (stereo not drawn) [C],210,18,13,20,190,18
N#CCCCSCCCC#N [D],215,19,15,22,195,19
CCC(CCCC#N)CSCC(CC)CCCC#N (stereo not drawn) [E],190,15,11,16,180,16
CCCCCCCCCCCCCCCCCCSCCC#N [F],180,13,10,15,170,14
N#CCCSCCC#N [Sample A],220,21,16,24,200,20
